# Experimental data published in patent US10369185B2, “Methods and compositions for enhancement of ability to concentrate” (KYOWA HAKKO BIO CO., LTD., priority 2014, dated 2019).
# “Also recorded” adds a separate entry of the source. Peptide text beside a SMILES is read from it.
# Columns and labels:
# male runners [1] = assay: Dynavision D2 MODE A reaction test (hits and time per hit in 60 s); assay type: in vivo, human; parameters: Mode A Avg Δ (average time per hit), group mean: unit not given here; conditions: for Mode A Avg Δ (average time per hit), group mean / Mode A Hits Δ, group mean: Post-Pre
# Description: The testing protocol is depicted in FIG. 1. Data collection occurred on four separate occasions. Each session required participants to perform a 60-min run at 75% of their previously measured VO2max. Following this run, all participants performed a run at 90% of their VO2max until volitional exhaustion. All participants performed their first trial (DHY) without any rehydration. During this session the total weight lost during the trial was determined. The fluid loss that occurred during this session was then used to determine the participant's swear rate (L·hr^−1). To continue in the study, participant's sweat rate was or exceeded 1.3 L·hr^−1. During the next three trails participants were provided 250 ml of fluid every 15 minutes in equal amounts. During one of the trials participants consumed only a flavored sports drink (ELECT only), while during the other trials participants consumed the alanine-glutamine supplement (Sustamine™) mixed in the same flavored sports drink at either a low (LD: 300 mg per 500 ml) or high (HD: 1 g per 500 ml) dose. Measurement of upper body reaction time was performed on the Dynavision D2 Visuomotor Training Device (D2; Dynavision International LLC, West Chester, Ohio). The D2 is a light training reaction device, developed to train sensory motor integration through the visual system. It consists of a board (4 foot×4 foot) that can be raised or lowered relative to the height of the operator. It contains 64 target buttons arranged into five concentric circles surrounding a center screen that can be illuminated to serve as a stimulus for the participant. Participants were required to assume a comfortable athletic stance and stand at a distance from the board where they could easily reach all of the lights. The board height was adjusted so the LCD screen was located just below eye level. A total of three different reaction tests were conducted. Participants were instructed to fixate their gaze on the LCD screen in the middle of the board and to keep their focus there for the entirety of the experiment. The second assessment (MODE A) measured the participant's ability to react to a stimulus as it changed positions on the board. An initial stimulus will present on the D2 in a 6 random location. The stimulus remained lit until it was struck by the participant. The stimulus then appeared at another random location. The participant was instructed to identify and strike as many stimuli as possible within 60 s. The number of hits and the average time per hits were recorded for each participant. Additionally, to make inferences on true effects of the different trials on reaction performance, an analysis based on the magnitude of differences, calculated from 90% confidence intervals, as previously described by Batterham and Hopkins (2005), was used in this study. Differences in Post-Pre performance (Δresponse) between trials were analyzed via a published spreadsheet (Hopkins 2007), with the smallest non-trivial change set at 20% of the grand standard deviation (Batterham and Hopkins 2005). All data are expressed as a mean effect±SD, with percent chances of a beneficial, trivial or negative outcome. Qualitative inferences, based on quantitative chances were assessed as: <1% almost certainly not, 1-5% very unlikely, 5-25% unlikely, 25-75% possibly, 75-95% likely, 95-99% very likely and >99% almost certainly (Hopkins 2002).
# male runners [2] = assay: Run at 90% VO2max until volitional exhaustion; assay type: in vivo, human; conditions: LD and HD compared to DHY
# Description: The testing protocol is depicted in FIG. 1. Data collection occurred on four separate occasions. Each session required participants to perform a 60-min run at 75% of their previously measured VO2max. Following this run, all participants performed a run at 90% of their VO2max until volitional exhaustion. All participants performed their first trial (DHY) without any rehydration. During this session the total weight lost during the trial was determined. The fluid loss that occurred during this session was then used to determine the participant's swear rate (L·hr^−1). To continue in the study, participant's sweat rate was or exceeded 1.3 L·hr^−1. During the next three trails participants were provided 250 ml of fluid every 15 minutes in equal amounts. During one of the trials participants consumed only a flavored sports drink (ELECT only), while during the other trials participants consumed the alanine-glutamine supplement (Sustamine™) mixed in the same flavored sports drink at either a low (LD: 300 mg per 500 ml) or high (HD: 1 g per 500 ml) dose.
structure (smiles),measurement,setting,value
C[C@H](N)C(=O)N[C@@H](CCC(N)=O)C(=O)O [L-Alanyl-L-Glutamine] (H-Ala-Gln-OH),"Mode A Avg Δ, Interpretation",male runners [1]; Dehydration vs High Dose,Possibly
same,"Mode A Avg Δ, Mean Difference",male runners [1]; Dehydration vs High Dose,0.025
same,"Mode A Avg Δ, Percent Negative",male runners [1]; Dehydration vs High Dose,2.83%
same,"Mode A Avg Δ, Percent Positive",male runners [1]; Dehydration vs High Dose,69.46%
same,"Mode A Avg Δ, Percent Trivial",male runners [1]; Dehydration vs High Dose,27.71%
same,"Mode A Hits Δ, Interpretation",male runners [1]; Dehydration vs High Dose,possible negative effect; also recorded: Possibly
same,"Mode A Hits Δ, Mean Difference",male runners [1]; Dehydration vs High Dose,−2.9
same,"Mode A Hits Δ, Percent Negative",male runners [1]; Dehydration vs High Dose,70.21%
same,"Mode A Hits Δ, Percent Positive",male runners [1]; Dehydration vs High Dose,2.09%
same,"Mode A Hits Δ, Percent Trivial",male runners [1]; Dehydration vs High Dose,27.70%
same,"Mode A Avg Δ, Interpretation",male runners [1]; Dehydration vs Low Dose,Possibly
same,"Mode A Avg Δ, Mean Difference",male runners [1]; Dehydration vs Low Dose,0.02
same,"Mode A Avg Δ, Percent Negative",male runners [1]; Dehydration vs Low Dose,2.61%
same,"Mode A Avg Δ, Percent Positive",male runners [1]; Dehydration vs Low Dose,61.93%
same,"Mode A Avg Δ, Percent Trivial",male runners [1]; Dehydration vs Low Dose,35.45%
same,"Mode A Hits Δ, Interpretation",male runners [1]; Dehydration vs Low Dose,possible negative effect; also recorded: Possibly
same,"Mode A Hits Δ, Mean Difference",male runners [1]; Dehydration vs Low Dose,−2.2
same,"Mode A Hits Δ, Percent Negative",male runners [1]; Dehydration vs Low Dose,57.68%
same,"Mode A Hits Δ, Percent Positive",male runners [1]; Dehydration vs Low Dose,3.88%
same,"Mode A Hits Δ, Percent Trivial",male runners [1]; Dehydration vs Low Dose,38.43%
same,"Mode A Avg Δ, Interpretation",male runners [1]; Gatorade vs High Dose,Possibly
same,"Mode A Avg Δ, Mean Difference",male runners [1]; Gatorade vs High Dose,0.023
same,"Mode A Avg Δ, Percent Negative",male runners [1]; Gatorade vs High Dose,2.17%
same,"Mode A Avg Δ, Percent Positive",male runners [1]; Gatorade vs High Dose,67.69%
same,"Mode A Avg Δ, Percent Trivial",male runners [1]; Gatorade vs High Dose,30.14%
same,"Mode A Hits Δ, Interpretation",male runners [1]; Gatorade vs High Dose,possibly negative
same,"Mode A Hits Δ, Mean Difference",male runners [1]; Gatorade vs High Dose,2.7
same,"Mode A Hits Δ, Percent Negative",male runners [1]; Gatorade vs High Dose,65.88%
same,"Mode A Hits Δ, Percent Positive",male runners [1]; Gatorade vs High Dose,2.87%
same,"Mode A Hits Δ, Percent Trivial",male runners [1]; Gatorade vs High Dose,31.25%
same,"speed per hit, MODE A",male runners [1]; HD and LD compared to DHY and ELECT only,not statistically different
same,"improvements of successful hits, MODE A","male runners [1]; HD and LD compared to DHY and ELECT only, not statistically significant",3-4 fold
same,"Mode A Avg Δ (average time per hit), group mean",male runners [1]; High Dose (1 g per 500 ml),−0.028
same,"Mode A Hits Δ, group mean",male runners [1]; High Dose (1 g per 500 ml),3.67
same,"Mode A Avg Δ (average time per hit), group mean",male runners [1]; Low Dose (300 mg per 500 ml),−0.023
same,"Mode A Hits Δ, group mean",male runners [1]; Low Dose (300 mg per 500 ml),2.92
same,"Mode A Avg Δ, Interpretation",male runners [1]; Low Dose vs Gatorade,Unclear
same,"Mode A Avg Δ, Mean Difference",male runners [1]; Low Dose vs Gatorade,−0.018
same,"Mode A Avg Δ, Percent Negative",male runners [1]; Low Dose vs Gatorade,50.55%
same,"Mode A Avg Δ, Percent Positive",male runners [1]; Low Dose vs Gatorade,44.41%
same,"Mode A Avg Δ, Percent Trivial",male runners [1]; Low Dose vs Gatorade,5.04%
same,"Mode A Hits Δ, Interpretation",male runners [1]; Low Dose vs Gatorade,Unclear
same,"Mode A Hits Δ, Mean Difference",male runners [1]; Low Dose vs Gatorade,1.9
same,"Mode A Hits Δ, Percent Negative",male runners [1]; Low Dose vs Gatorade,42.26%
same,"Mode A Hits Δ, Percent Positive",male runners [1]; Low Dose vs Gatorade,50.35%
same,"Mode A Hits Δ, Percent Trivial",male runners [1]; Low Dose vs Gatorade,7.39%
same,"Mode A Avg Δ, Interpretation",male runners [1]; Low Dose vs High Dose,Very Likely
same,"Mode A Avg Δ, Mean Difference",male runners [1]; Low Dose vs High Dose,0.005
same,"Mode A Avg Δ, Percent Negative",male runners [1]; Low Dose vs High Dose,0.02%
same,"Mode A Avg Δ, Percent Positive",male runners [1]; Low Dose vs High Dose,2.51%
same,"Mode A Avg Δ, Percent Trivial",male runners [1]; Low Dose vs High Dose,97.47%
same,"Mode A Hits Δ, Interpretation",male runners [1]; Low Dose vs High Dose,Likely
same,"Mode A Hits Δ, Mean Difference",male runners [1]; Low Dose vs High Dose,−0.75
same,"Mode A Hits Δ, Percent Negative",male runners [1]; Low Dose vs High Dose,9.11%
same,"Mode A Hits Δ, Percent Positive",male runners [1]; Low Dose vs High Dose,0.11%
same,"Mode A Hits Δ, Percent Trivial",male runners [1]; Low Dose vs High Dose,90.77%
same,run times at 90% VO2max (time to exhaustion),male runners [2],significantly longer at LD and HD compared to DHY; also recorded: improved time to exhaustion compared to when subjects were dehydrated; also recorded: can enhance time to exhaustion
